Legend:
Panc02 cells [1] = experiment: Example 4: bilateral Panc02 model, i.t. MBTA + i.p. DON in two timing regimes; format: in vivo; details: for prolongation of mice survival: FIG. 4C
Protocol: (§1) Subcutaneous transplantation: Mice were subcutaneously injected with 4×10^5 Panc02 cells in 0.1 ml DMEM or 4×10^5 B16-F10 cells in 0.1 ml RPMI 1640 medium without additives into pre-shaved groin (right or both right and left).
(§2) MBTA immunotherapy: 50 μl of the therapeutic mixture consisting of 0.5 mg R-848, HCl form+0.5 mg poly (I:C), 0.5 mg LTA and 0.4 mg anti-CD40/ml of 0.2 mM mannan-BAM in PBS was administered intratumorally on days 0, 1, 2, 8, 9, 10, 16, 17, 18, 24, 25, and 26. The combination of R-848, poly (I:C), LTA, mannan-BAM and anti-CD40 antibody is hereinafter referred to as ‘MBTA’. In the case of the bilateral Panc02 tumor model, MBTA therapy was always injected only into the right subcutaneous tumor.
(§3) Evaluation of treatment: Tumor sizes were measured every other day using a digital calliper. The formula V=(π/6)AB^2, A being the largest tumor size, B being the smallest tumor size, was used to calculate tumor volume.
(§4) The areas under the curves (AUC) were calculated to evaluate tumor growth. The obtained values were statistically evaluated by one-way ANOVA with unequal post hoc test. Kaplan-Meier survival curves were evaluated using the long-rank test. STATISTICA 12 software (StatSoft, Inc., Tulsa, OK, USA) was used for all statistical evaluations. Error bars represent standard error of the mean (SEM).
To improve MBTA/DON combined therapy outcomes we tested the intraperitoneal administration of DON in combination with i.t. MBTA therapy. The total amount of DON (2 mg/mouse/therapy) was applied in two different regimes as further specified.
C57BL/6 mice were s.c. inoculated with Panc02 cells in both right and left flank. After 12 days, mice were randomized into four groups (n=6/group): Group treated with PBS applied in the right tumor; group treated with MBTA applied in the right tumor; group treated with MBTA applied in the right tumor, and DON applied i.p. (13 doses); group treated with MBTA applied in the right tumor, and DON applied i.p. (5 doses, red). MBTA (PBS in the control group) was applied in pulse regime on days 0, 1, 2, 8, 9, 10, 16, 17, 18, 24, 25, and 26. DON was administered i.p. on days 5, 13, 21, 29, 37 (400 μg) and 1, 3, 5, 7, 9, 11, 13 15 17 19 21, 23, 25 (154 μg), respectively.
FIG. 4A, B: Growth of right/left tumors. Statistical analysis was performed by calculating AUC (area under the curve) values using a one-way ANOVA test with Tukey's post hoc test (* p<0.05, **** p<0.001, ***** p<0.0005), FIG. 4 C: Survival analysis.

Panc02 cells [2] = experiment: Example 5: bilateral Panc02 model, i.t. MBTA + s.c. DON in different dosages; format: in vivo, C57BL/6 mice; details: with i.t. MBTA, DON s.c. 80 μg or 400 μg, days 1,9,17,25,33
Protocol: as §1, §2, §3
as §4, with “(SEM). […]” for “(SEM).”

Panc02 cells [3] = experiment: Example 6: bilateral Panc02 model, i.t. MBTA + DON i.t. (left tumor) versus i.p.; format: in vivo, C57BL/6 mice; details: with MBTA in right tumor, days 1,8,15,22,29
Protocol: as §1, §2, §3
as §4, with “(SEM). […]” for “(SEM).”

Panc02 cells [4] = experiment: Example 7: bilateral Panc02 model, i.t. MBTA + i.p. DON, efficacy and side effects; format: in vivo; details: DON 400 μg i.p., days 1,8,15,22,29, with i.t. MBTA
Protocol: as §1, §2, §3
as §4, with “(SEM). […]” for “(SEM).”

With `[N-]=[N+]=CC(=O)CC[C@H](N)C(=O)O` [DON, 6-diazo-5-oxo-norleucine] the “early deaths of treated mice” value (Panc02 cells [1]; DON i.p. with a sufficient interval between each application, with i.t. MBTA (summary of Examples 4 to 6)) was “did not observe any early deaths”, the “prolongation of mice survival” value (Panc02 cells [1]; with i.t. MBTA, DON i.p. 154 μg, 13 doses, every other day) was “evident but not statistically significant” and the “prolongation of mice survival” value (Panc02 cells [1]; with i.t. MBTA, DON i.p. 400 μg, 5 doses) was “evident but not statistically significant”. For the same compound, the “tolerability of regime / early death” value (Panc02 cells [1]; with i.t. MBTA, DON i.p. every other day (154 μg, 13 doses), n=6/group) was “too aggressive and resulted in early death of three mice”, the “reduction of tumor growth, compared to i.p. administration of DON (Example 4)” value (Panc02 cells [2]; FIG. 5A, B) was “less evident” and the “early deaths of treated mice” value (Panc02 cells [2]; FIG. 5C) was “No early deaths”. The “survival of treated mice” value (Panc02 cells [3]; DON 400 μg i.p., FIG. 6C) was “significantly prolonged”, the “efficacy of the therapy” value (Panc02 cells [3]; DON 400 μg i.t. in left tumor, FIG. 6) was “did not improve the efficacy” and the “water and food consumption” value (Panc02 cells [4]; FIG. 7D, E) was “without any influence”. The “weight of treated mice” value (Panc02 cells [4]; FIG. 7F) was “without any influence”.

— patent US20240424004A1, “COMBINATION OF TLR LIGANDS, COMPOUNDS LABELLING TUMORS FOR IMMUNE ATTACK, ANTI-CD40 ANTIBODIES AND INHIBITORS OF GLUTAMINE METABOLISM FOR TREATING CANCER” (priority 2021, published 2024)
